Test results as given in PubChem BioAssay (NCI).
Values joined by “and” are separate entries in the source; they are usually repeats but may differ in a detail not shown here. Equal entries are not always repeated.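 Five concentrations, 48 hours, 96-well plates. GI50 = concentration required for 50% inhibition of growth. TGI: total growth inhibition.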

Experiments:
Experiment in all cases: NCI tumour cell line growth inhibition, 48 h
UO-31 renal = tested on: UO-31 renal
DU-145 prostate = tested on: DU-145 prostate
NCI-H23 lung = tested on: NCI-H23 lung
OVCAR-5 ovarian = tested on: OVCAR-5 ovarian
UACC-257 melanoma = tested on: UACC-257 melanoma
SF-268 CNS = tested on: SF-268 CNS
MOLT-4 leukemia = tested on: MOLT-4 leukemia
SNB-75 CNS = tested on: SNB-75 CNS

| Structure (SMILES) | GI50 (UO-31 renal) | TGI (UO-31 renal) | GI50 (DU-145 prostate) | TGI (DU-145 prostate) | GI50 (NCI-H23 lung) | TGI (NCI-H23 lung) | GI50 (OVCAR-5 ovarian) | TGI (OVCAR-5 ovarian) | GI50 (UACC-257 melanoma) | TGI (UACC-257 melanoma) | GI50 (SF-268 CNS) | TGI (SF-268 CNS) | GI50 (MOLT-4 leukemia) | GI50 (SNB-75 CNS) | TGI (SNB-75 CNS) | TGI (MOLT-4 leukemia) |
| --- | --- | --- | --- | --- | --- | --- | --- | --- | --- | --- | --- | --- | --- | --- | --- | --- |
| COC(=O)[C@H](Cc1c[nH]c2ccccc12)NC(=O)[C@@H](OC)[C@@H]1Cc2cc3cc(OC4CC(OC5CC(O)C(O)C(C)O5)C(O)C(C)O4)c(C)c(O)c3c(O)c2C(=O)[C@H]1OC1CC(OC2CC(OC3CC(C)(O)C(O)C(C)O3)C(O)C(C)O2)C(O)C(C)O1 (some centres not stated) | 0.215 µM | 1.18 µM | 0.00713 µM | > 16.5 µM | 0.00614 µM | 0.0506 µM | 0.0102 µM | > 16.5 µM | 0.00662 µM | 0.124 µM | 0.00891 µM | 1.78 µM | 0.00654 µM | 0.00465 µM | 0.0244 µM |  |
| Cn1cnc([N+](=O)[O-])c1[Se]c1nc(N)nc2c1ncn2C1OC(CO)C(O)C1O (configuration not stated) |  | > 100 µM |  | > 100 µM |  | > 100 µM |  | > 100 µM |  | > 100 µM |  | > 100 µM |  |  | > 100 µM | > 100 µM |
| COc1ccc(-n2cc(-c3cc(OC)c(OC)c(OC)c3)[nH]c2=O)cc1Cl | > 100 µM | > 100 µM |  |  | > 100 µM | > 100 µM | > 100 µM | > 100 µM |  |  | 40.8 µM | > 100 µM | > 100 µM | 6.69 µM | 28.8 µM | > 100 µM |
| C=C(C)C1CCC2(C(=O)O)CCC3(C)C(CCC4C5(C)CCC(OC(=O)NCc6ccccc6)C(C)(C)C5CCC43C)C12 (configuration not stated) | 1.86 µM | 34.5 µM | 4.14 µM | 35.2 µM | 2.31 µM | 44 µM | 84.3 µM | > 100 µM | 2.3 µM | > 100 µM | 4.84 µM | > 100 µM | 2.79 µM | 98.4 µM | > 100 µM | > 100 µM |
| C=C[C@H]1C[C@@H]2C[C@@H]3[C@H]4C/C=C\C(=O)NCCCC5NC(=O)C(=C(O)/C=C/[C@@H]4CC(=O)[C@H]3[C@@H]2[C@H]1C)C5=O (some centres not stated) | 0.15 µM | 0.299 µM | 0.191 µM | 0.345 µM | 0.627 µM | 1.47 µM | 0.436 µM | 1.72 µM | 0.191 µM | 0.369 µM | 0.172 µM | 0.334 µM |  | 0.15 µM | 0.289 µM |  |
| Cc1ccc(C(=O)Nc2ccc(CN3CCN(C)CC3)c(C(F)(F)F)c2)cc1C#Cc1cnc(N)c2ccccc12 | 0.241 µM | 0.886 µM | 0.167 µM | 0.861 µM | 0.799 µM | 1.76 µM | 0.609 µM | 1.5 µM | 0.736 µM | 1.73 µM | 0.403 µM | 1.26 µM | 0.224 µM | 0.726 µM | 1.52 µM | 1.28 µM |
| C=C1CC[C@@H]2[C@](C)(COC(C)=O)[C@H](OC(C)=O)CC[C@@]2(C)[C@@H]1CC(Nc1ccc(S(=O)(=O)Nc2ncccn2)cc1)C1=CCOC1=O (some centres not stated) | 1.51 µM | 2.97 µM | 1.62 µM | 3.07 µM | 2.11 µM | 5.38 µM | 1.98 µM | 3.85 µM | 2.34 µM | 6.07 µM | 1.93 µM | 4.16 µM | 2.27 µM | 1.27 µM | 3.23 µM | 8.37 µM |
| COc1cc2c(c(OC)c1OC)-c1c(cc3c(c1OC)OCO3)C1OC2C(C)C1C (configuration not stated) (tested in a mixture with another compound) |  | > 100 µM |  | > 100 µM |  | > 100 µM |  | > 100 µM |  | > 100 µM |  | > 100 µM |  |  | > 100 µM | 70.4 µM |
| CCc1oc2ccccc2c1C(=O)c1cc(I)c(O)c(I)c1 | 1.82 µM | 10.5 µM | 2.37 µM | 7.4 µM | 3.91 µM | 17.4 µM | 11.4 µM | 25.1 µM | 6.13 µM | 21.1 µM | 2.89 µM | 15.2 µM | 3.33 µM | 1.54 µM | 6.43 µM | 26.6 µM |
| Cn1c2ccccc2c2c3[nH]c(=O)[nH]c(=O)c3c3c4ccccc4n(C)c3c21 |  |  | 1.51 µM | > 100 µM | 3.47 µM | 19.4 µM | 3 µM | > 100 µM | > 100 µM | > 100 µM | 3.12 µM | 15.6 µM |  | 1.49 µM | 3.27 µM |  |
| CON(C)C(=O)N1N=C(c2cc(F)ccc2F)SC1(CCCN)c1ccccc1 (configuration not stated) | 3.37 µM and 2.21 µM | 21.8 µM and 20.5 µM | 0.0336 µM and < 0.01 µM | 11.8 µM and 11.3 µM | 0.0936 µM and < 0.01 µM | 21.9 µM and 14.8 µM | 0.0576 µM and < 0.01 µM | 15.1 µM and 15.8 µM |  | 21.7 µM and 22.3 µM | 0.0217 µM and < 0.01 µM | 17.3 µM and 16 µM | 0.0547 µM and < 0.01 µM | 0.0531 µM and < 0.01 µM | 16.2 µM and 15 µM | 20 µM and 18.2 µM |
| O=C1/C(=C/c2ccc(O)cc2)CSc2ccc(Cl)cc21 | 12.4 µM | 29.1 µM | 12.4 µM | 27.2 µM | 19.3 µM | 46 µM | 19.8 µM | 40.4 µM | 19.1 µM | 38.9 µM | 15.4 µM | 41.3 µM | 4.09 µM | 18.3 µM | 54.8 µM | > 100 µM |
| C=C1C(=O)O[C@H]2[C@H]1CC/C(COC(=O)c1cc3ccccc3s1)=C\CC[C@@]1(C)O[C@@H]21 | 1.4 µM | 2.79 µM | 1.05 µM | 2.3 µM | 1.74 µM | 3.84 µM | 2.02 µM | 4.35 µM | 1.77 µM | 3.61 µM | 1.54 µM | 3.24 µM | 1.88 µM | 3.52 µM | 13.4 µM | 7.69 µM |
| Fc1ccc(-c2nn3ncccc3c2-c2ccnc(Nc3ccc4c(c3)OCCO4)n2)cc1 | 0.581 µM | > 25 µM | 6.26 µM | > 25 µM | 6.8 µM | > 25 µM | 14 µM | > 25 µM | 6.22 µM | 19.7 µM | 7.36 µM | > 25 µM | 4.8 µM |  | > 25 µM | > 22.4 µM |
| CC1(C)N=C(N)N=C(N)N1c1ccc(OCc2ccc(S(=O)(=O)F)c(Cl)c2)c(Cl)c1 | 46 µM | > 100 µM | 4 µM | > 100 µM | 2.09 µM | > 100 µM | > 100 µM | > 100 µM | 2.38 µM | > 100 µM | 2.85 µM | > 100 µM | 3.59 µM | 4.92 µM | > 100 µM | > 100 µM |
| CO[C@H]1C=C[C@@]23c4cc5c(cc4CO[C@]2(O)CN(C)[C@H]3C1)OCO5 |  | > 100 µM |  | > 100 µM |  | > 100 µM |  | > 100 µM |  | > 100 µM |  | > 100 µM |  |  | > 100 µM | > 100 µM |
| CCOC(=O)c1c(C)nc2c(c1N)/C(=C/c1ccc(OC)cc1)C(=O)N2Cc1ccc(F)cc1 | 0.132 µM | 0.301 µM | 0.279 µM | 1.12 µM | 0.262 µM | 1.03 µM | 0.246 µM | 0.561 µM |  |  | 0.285 µM | 1.21 µM | 0.221 µM | 1.03 µM | 4.83 µM | 0.745 µM |
| O=C1OC(c2ccco2)=N/C1=C\c1cccc([N+](=O)[O-])c1 |  |  |  | > 100 µM |  | > 100 µM |  | > 100 µM |  | > 100 µM |  | > 100 µM |  |  | > 100 µM | > 100 µM |
| NCCCn1c2c(c3ccc([N+](=O)[O-])cc3c1=O)C(=O)c1cc(Br)ccc1-2 | 0.0575 µM | 0.184 µM | 0.00205 µM | 0.00873 µM and 0.0121 µM | 0.0289 µM and 0.0213 µM | 0.118 µM and 0.151 µM | 0.197 µM and 0.14 µM | 0.409 µM and 0.688 µM | 0.456 µM |  | 0.00358 µM | 0.142 µM |  | 0.00281 µM | 0.0298 µM |  |
| COc1ncc(-c2ccc3ncnc(Nc4cccc(Cl)c4)c3c2)cc1NS(=O)(=O)CCN1CCOCC1 |  |  | 0.297 µM | > 100 µM | 0.768 µM | > 100 µM |  |  |  |  | 0.382 µM | > 100 µM |  | < 0.01 µM | 0.739 µM |  |
| COc1ccc2nc3cc(Cl)ccc3c(NCCN)c2c1 | 1.5 µM | 2.95 µM | 1.53 µM | 2.92 µM |  |  |  |  | 18.6 µM | 33.3 µM |  |  | 1.25 µM |  |  | 3.68 µM |
| COc1ccc(C2SCC(=O)N2NC(=O)Nc2c(C)nc3ccccn23)cc1 (configuration not stated) | 32.7 µM | > 100 µM | 44.9 µM | > 100 µM |  |  | 28.9 µM | > 100 µM | > 100 µM | > 100 µM | 39.7 µM | > 100 µM | > 100 µM | 4.76 µM | 19.9 µM | > 100 µM |
| CC[C@H](C)[C@H]1O[C@]2(C=C[C@@H]1C)C[C@@H]1C[C@@H](C/C=C(\C)[C@@H](O[C@H]3C[C@H](OC)[C@@H](O[C@H]4C[C@H](OC)[C@@H](NC)[C@H](C)O4)[C@H](C)O3)[C@@H](C)/C=C/C=C3\CO[C@@H]4[C@H](O)C(C)=C[C@@H](C(=O)O1)[C@]34O)O2 | 1.69 µM | 4.13 µM |  |  | 2.73 µM | 8.34 µM | 3.41 µM | 14.9 µM | 2.03 µM | 4.21 µM | 3.9 µM | 16 µM | 1.81 µM | 1.93 µM | 8.44 µM | 4.48 µM |
